The values below come from US20080108694A1, “Novel Macrocycles and Uses Thereof” (priority 2003, published 2008).

The conditions of series [1]: rcm bond.
In series [2] the test system is small cell lung cancer cell line with defective Rb function. The series is described as follows: Inhibition of small cell lung cancer cell line with defective Rb function. Type of series: cell-based, human. How it is done: (§1) Growth assays were performed by seeding 10000 cells (MCF7, BT474 or N417) per well in 6-welldishes and incubating for 24 h before drug treatment. Drugs or vehicle were administered as outlined for each experiment, and cells were incubated for the time periods depicted and then the number quantified by a Coulter counter.

A further series has as its system MCF7. The series is described as follows: Alamar blue proliferation assay, growth inhibition of MCF7 breast cancer cells. Type of series: cell-based, human. The following applies: for IC50: Homo sapiens. The text has this: Biological Evaluation of Cycloproparadicicol Analogues. As discussed earlier, it appears that the inhibition of Hsp90 induces the proteasomal degradation of various oncogenic proteins, thereby leading to inhibition of tumor cell growth. We hoped to evaluate our synthetic analogues for their growth inhibition activity against MCF breast cancer cells. […] Further modifications of 27α, however, decreased its potency.
Cell Culture. The human cancer line MCF7 was obtained from American Type Culture Collection (Manassas, Va., USA) and maintained in 1:1 mixture of DME:F12 supplemented with 10% heat-inactivated fetal bovine serum, 2 mM glutamine, 50 units/ml of penicillin and streptomycin, and incubated in a humidified 5% CO2/air atmosphere at 37° C. For the Alamar blue proliferation assay, 2×10^3 cells were plated in 96-well plates. Twenty four hours later, cells were treated with the compound for 72 or 120 hours. On day 3 or 5, Alamar Blue viability assay (AccuMe Westlake, Ohio) was performed as described elsewhere (White, M. J.; DiCaprio, M. J Greenberg, D. A. J. Neurosci. Methods 1996, 70, 195-200; incorporated herein by reference). IC50s were calculated as the doses of the compound required to inhibit cell growth by 50% of control values.

In series [3] the test system is HER2. The series is described as follows: Her2 degradation in drug-treated MCF-7 cells by immunoblotting. Type of series: cell-based, human. The following applies: for concentration at which Her2 is degraded: P85 control. The protocol:
To confirm that the cytotoxicity was indeed due to the inhibition of Hsp90, we set out to investigate the degradation of Her2, one of the most sensitive client proteins of this chaperone. The expression levels of Her2 of drug-treated MCF-7 cells were analyzed using immunoblotting (FIG. 31). P85, used as a control, is not a client protein of Hsp90. As expected, the growth inhibition activities of the synthetic active analogues are reflected in their capacity to degrade Her2. […] Nonchlorinated difluoro compound 38 degraded Her2 at 1 μM, and its chlorinated counterpart 31, at 10 μM.
Immunoblotting. For immunoblotting, cells in culture were washed and harvested in PBS, and then lysed in NP-40 buffer (50 mMTris, pH 7.5, 1% Nonidet P-40, 150 mM NaCl, 2.5 mM Na3VO4, 10 mM phenylmethylsulfonyl fluoride, and 10 μM each leupeptin, aprotinin, and soybean trypsin inhibitor). Cell lysates were cleared by centrifugation at 14,000×g for 10 minutes, and supernatants were collected as the experimental samples. Protein concentrations were determined using BCA reagent (Pierce Chemical Co., Rockford, Ill.). Lysates were added to sample buffer [0.3125 M Tris-HCl (pH 6.8), 10% SDS, 50% glycerol, and 77.5 mg/ml DTT], and equal amounts of protein were resolved by 7% SDS-PAGE and transferred to nitrocellulose membranes. Blots were blocked in 5% nonfat milk in Tris-buffered saline [0.1% Tween 20, 10 mM Tris (pH 7.4), and 150 mM NaCl] and subsequently probed with antibody (HER2 rabbit polyclonal IgG, Santa Cruz Biotechnology, Santa Cruz, Calif.; and PI3 kinase P85, Upstate Cell Signaling Solutions, Lake Placid, N.Y.). After incubation with horseradish peroxidase-conjugated secondary antibodies, proteins were visualized by chemiluminescence using the ECL detection reagents (Amersham Corp., Piscataway, N.J.). To prepare lysate from xenograft tumors, tumor tissue was homogenized in 2% SDS lysis buffer for 30 s then processed as above.
On the technique in general: In western blotting, separated proteins are transferred to a membrane and probed.

The next series relates to Hsp90. The note with it: cited from earlier work.
Series [4] has as its system breast cancer cell with wild type Rb. Put plainly: Inhibition of breast cancer cell with wild type Rb. Type of series: cell-based, human. How it is done:
as §1

The subject of series [5] is HER2. Put plainly: Reduction of HER2 in MCF7 and BT474 cells (protein assay, gels). The note with it: tested at 0.5 μM through 5 μM. Type of series: cell-based, human. How it is done: As depicted in FIGS. 17 and 18, four analogues have been tested for their ability to reduce HER2 in MCF7 and BT474 cells. […] Furthermore, while the vinyl epoxide, a reactive moiety, may be responsible for undesired cytotoxicity, the cyclopropane is far more stabile to non-productive cellular nucleophiles.
The human cancer cell lines MCF7, BT474 and N417 were obtained from the American Type Culture Collection (Manassas, Va., USA) and maintained in a 1:1 mixture of DME:F12 supplemented with 2 mM glutamine, 50 U/mL penicillin, 50 U/mL streptomycin and 5% heat inactivated fetal bovie serum (Gemini Bioproducts) and incubated at 37° C. in 5% CO2.
Cells were grown to 60-70% confluence and exposed to drugs or DMSO vehicle for the indicated time periods. Lysates were prepared using 50 mM Tris pH 7.4, 2% SDS and 10% glycerol lysis buffer. Protein concentration was determined using the BCA kit (Pierce Chemical Co.) according to the manufacturer's instructions. Clarified protein lysates (20-50 μg) were electrophoretically resolved on denaturing SDS-PAGE, transferred to nitrocellulose and probed with the following primary antibodies: anti-Her2 (C-18).

A further series concerns P. falciparum. The following applies: cited from earlier work.
The test system of another series is KB cells. The following applies: cited from earlier work.
A further series concerns MCF7 cells. The series is described as follows: Growth of MCF7 cells (HER2 overexpressed, Rb positive) treated with radicicol and analogues. Type of series: cell-based, human.
The conditions of series [6]: cited from earlier work.
Where [7] appears, read: MCF7, MCF breast cancer cells, 72 h treatment, read-out: IC50 value.
Where [8] appears, read: MCF7 cells, 72 h treatment, read-out: IC50 (pM) Values of Cycloproparadicicol Analogues and Aigialomycin D.
Where [9] appears, read: MCF breast cancer cells, 72 h treatment.

Values after ≈ are worked out from the molar mass of the structure shown. Read-outs that look alike come from different tables or passages of the source.

Molecule `CC(C)(C)[Si](C)(C)OC1/C=C/C=CCCCCOC(=O)[C]23[Co]4[Co]2[C]43C1.[C-]#[O+].[C-]#[O+].[C-]#[O+].[C-]#[O+].[C-]#[O+].[C-]#[O+]` (centres unmarked) displayed a ring closure, yield of all isomers in series [1] (from C=CCCCCOC(=O)[C]12[Co]3[Co]1[C]32CC(/C=C/C=C/C)O[Si](C)(C)C(C)(C)C.[C-]#[O+].[C-]#[O+].[C-]#[O+].[C-]#[O+].[C-]#[O+].[C-]#[O+]) of 71%.
As for `C[C@@H]1C[C@H]2C[C@@H]2C=C/C=C/C(O[Si](C)(C)C(C)(C)C)CC#CC(=O)N1` (some centres unmarked), the ring closure, yield of all isomers in series [1] (from C=C[C@H]1C[C@@H]1C[C@@H](C)NC(=O)C#CCC(/C=C/C=C/C)O[Si](C)(C)C(C)(C)C.[C-]#[O+].[C-]#[O+].[C-]#[O+].[C-]#[O+].[C-]#[O+].[C-]#[O+].[Co].[Co], 2 steps) was 60%.
In [1] (from C=C[C@H]1C[C@@H]1C[C@@H](C)OC(=O)[C]12[Co]3[Co]1[C]32CC(/C=C/C=C/C)O[Si](C)(C)C(C)(C)C.[C-]#[O+].[C-]#[O+].[C-]#[O+].[C-]#[O+].[C-]#[O+].[C-]#[O+], 2 steps), `C[C@@H]1C[C@H]2C[C@@H]2C=C/C=C/C(O[Si](C)(C)C(C)(C)C)CC#CC(=O)O1` (some centres unmarked) returned a ring closure, yield of all isomers of 51%.
`C[C@@H]1C[C@H]2C[C@@H]2C=C/C=C/C(O[Si](C)(C)C(C)(C)C)C[C]23[Co]4[Co]2[C]43C(=O)O1.[C-]#[O+].[C-]#[O+].[C-]#[O+].[C-]#[O+].[C-]#[O+].[C-]#[O+]` (some centres unmarked): in series [1] (from C=C[C@H]1C[C@@H]1C[C@@H](C)OC(=O)[C]12[Co]3[Co]1[C]32CC(/C=C/C=C/C)O[Si](C)(C)C(C)(C)C.[C-]#[O+].[C-]#[O+].[C-]#[O+].[C-]#[O+].[C-]#[O+].[C-]#[O+]), the ring closure, yield of all isomers is 57%.
`C[C@H]1CC=C[C@H]2OC(C)(C)O[C@H]2CCC(O[Si](C)(C)C(C)(C)C)C[C]23[Co]4[Co]2[C]43C(=O)O1.[C-]#[O+].[C-]#[O+].[C-]#[O+].[C-]#[O+].[C-]#[O+].[C-]#[O+]` (some centres unmarked): the ring closure, yield of all isomers in series [1] (from C=CC[C@H](C)OC(=O)[C]12[Co]3[Co]1[C]32CC(CC[C@@H]1OC(C)(C)O[C@@H]1C=C)O[Si](C)(C)C(C)(C)C.[C-]#[O+].[C-]#[O+].[C-]#[O+].[C-]#[O+].[C-]#[O+].[C-]#[O+]) turned out to be 80%.
On to “17-alkylaminogeldanamycin [17-AGG, reference compound]”, for which the “potency in cells with wild type Rb versus cells with defective Rb function” value in series [2] is on record as “much more potent against cells with wild type Rb than in cells with defective Rb function”.
`C[C@@H]1C[C@H]2C[C@@H]2/C=C\C=C\[C@H](O)Cc2cc(O)cc(O)c2C(=O)O1` [27α]: the IC50 with MCF7 (setting [7]) and in the series with MCF7 (setting [8]) was 150000 pM in each case. In addition, the “concentration at which Her2 is degraded” value with HER2 [3] stood at 0.3 µM.
For `C[C@@H]1C[C@H]2C[C@@H]2/C=C\C=C\[C@@H](O)Cc2cc(O)cc(O)c2C(=O)O1` [27β], in the series with MCF7 (setting [8]), the IC50 (in general, the concentration that gives 50% inhibition) is more than 500000 pM. For the same molecule, the “growth inhibition activity” value with MCF7 (setting [9]) was “inactive”.
As to `C[C@@H]1C[C@H]2C[C@@H]2/C=C\C=C\[C@H](O)Cc2c(Cl)c(O)cc(O)c2C(=O)O1` [28α], the IC50 in the series with MCF7 (setting [7]) and in the series with MCF7 (setting [8]) was 390000 pM each time.
For `CO[C@H]1/C=C/C=C\[C@H]2C[C@@H]2C[C@@H](C)OC(=O)c2c(O)cc(O)cc2C1` [29α], the IC50 in the series on MCF7 (setting [8]) is more than 1e+07 pM. In addition, the “growth inhibition activity” value in the series on MCF7 (setting [9]) was “completely inactive”.
Turning to `C[C@@H]1C[C@H]2C[C@@H]2\C=C/C=C/C(=N/O)Cc2c(Cl)c(O)cc(O)c2C(=O)O1` [(E)-30], in the series with MCF7 (setting [8]), the IC50 came to 282000 pM. Besides, in the series on HER2 [3], the “capacity to degrade Her2” value is listed as “less effective”.
For the molecule `C[C@@H]1C[C@H]2C[C@@H]2\C=C/C=C/C(=N\O)Cc2c(Cl)c(O)cc(O)c2C(=O)O1` [(Z)-30], the IC50 in the series with MCF7 (setting [8]) is 98000 pM. In the series with MCF7 (MCF breast cancer cells, 72 h), the “potency relative to the corresponding (E)-isomer” value was 3 times. For the same molecule, the “concentration at which Her2 is degraded” value in the series with HER2 [3] stood at 0.3 µM.
Regarding `C[C@@H]1C[C@H]2C[C@@H]2/C=C\C=C\C(=O)Cc2c(Cl)c(O)cc(O)c2C(=O)O1` [compound 2, Cycloproparadicicol], in series [2], the “inhibition of small cell lung cancer cell line with defective Rb function” value is given as “potent inhibitors” and the “potency relative to 17-AGG in small cell lung cancer cell line with defective Rb function” value was “much more potent than 17-AGG”. For the same molecule, the IC50 in the series on MCF7 (setting [8]) was 54000 pM. In addition, the “growth inhibition activity” value in the series with MCF7 (setting [9]) is “most potent of the new compounds”. The “concentration at which Her2 is degraded” value with HER2 [3] was determined as 0.3 µM. For the same molecule, in the series on Hsp90, the “binds to Hsp90 at” value is “ca. 160 nM”. Moreover, the “inhibition of breast cancer cell with wild type Rb” value in series [4] is reported as “potent inhibitors”. In addition, the “effectiveness in reducing HER2 relative to radicicol” value in the series on HER2 [5] is recorded as “at least as effective, if not better than radicicol”.
Regarding `C[C@@H]1C[C@@H]2[C@@H](/C=C\C=C\C(=O)Cc3c(Cl)c(O)cc(O)c3C(=O)O1)C2(F)F` [compound 31, Difluorocycloproparadicicol], the IC50 in the series with MCF7 (setting [8]) is 1e+07 pM. Moreover, in the series with HER2 [3], the “concentration at which Her2 is degraded” value was determined as 10 µM.
For the molecule `C[C@@H]1C[C@@H]2[C@@H](/C=C\C=C\C(=O)Cc3cc(O)cc(O)c3C(=O)O1)C2(F)F` [compound 38, Difluorocyclopropamonocilin], the IC50 in the series on MCF7 (setting [8]) amounted to 3e+06 pM. In addition, in the series on HER2 [3], the “concentration at which Her2 is degraded” value was found to be 1 µM.
On to `C[C@H]1C/C=C/[C@@H](O)[C@@H](O)CC/C=C/c2cc(O)cc(O)c2C(=O)O1` [compound 46, Aigialomycin D], for which the IC50 in the series on MCF7 (MCF7, 72 h, read-out: IC50 (pM) Values of Cycloproparadicicol Analogues and Aigialomycin D) is more than 1e+07 pM. The “growth inhibition activity” value with MCF7 (setting [9]) is given as “significantly less active than the cycloproparadicicol derivatives”. For the same molecule, the “concentration at which Her2 is degraded” value with HER2 [3] is more than 10 µM. Further, the “IC50 against P. falciparum (antimalarial activity)” value with P. falciparum is 6.6 mg/L (≈ 19.7 µM). Moreover, the “IC50 against KB cells (antitumor activity)” value in the series on KB cells was 3.0 mg/L (≈ 8.97 µM).
For the molecule `C[C@@H]1C[C@H]2O[C@@H]2/C=C\C=C\C(=O)Cc2c(Cl)c(O)cc(O)c2C(=O)O1` [radicicol, reference compound], the “inhibition of small cell lung cancer cell line with defective Rb function” value in series [2] is recorded as “potent inhibitors”. Further, the “efficacy in side by side experiment with radicicol” value with MCF7 cells is reported as “demonstrated efficacy”. Besides, the “activity in in vivo (animal) models” value in series [6] was “ineffective”. Moreover, the “inhibition of breast cancer cell with wild type Rb” value in series [4] is listed as “potent inhibitors”.
